According to patent publication US5089624A, “Dihydropyridine derivatives” (Yuhan Corporation, priority 1988, dated 1992):

Test system: spiral strips of rabbit aorta
Experiment: Reduction of calcium-induced contraction of K+-depolarised rabbit aorta spiral strips
Type: cell-based
Conditions: for IC50: Oryctolagus cuniculus, molar concentration required to reduce the contractile response by 50%, 35 mM potassium, 2 mM calcium ion
Method: The test is performed by mounting spiral strips of rabbit aorta with one end fixed and the other attached to a force transducer. The mounted tissue is immersed in a physiological salt solution containing potassium ion at a concentration of 35 millimole and no calcium. Calcium chloride is added to the bath to give a final calcium ion concentration of 2 millimole. The change in tension caused by the resulting contraction of the tissue is noted. The bath is drained and replaced with fresh salt solution and, 45 minutes later the test is repeated with the addition of the compound being tested in the presence of salt solution and, […] The concentration of compound required to reduce the response by 50% is recorded. The anti-hypertensive activity of the compounds is also evaluated oral administration by measuring the decrease fall in blood pressure in spontaneously hypertensive rats.

IC50 [nM] | Compound | activity ranking in words (the smaller the concentration, the more active) (ranking by IC50 in Table 1)
20 | COCOC(=O)C1=C(C)NC(C)=C(C(=O)OC)C1c1cccc(Cl)c1Cl (stereo not drawn) [Example 10] | –
80 | COC(=O)C1=C(C)NC(C)=C(C(=O)OCSC)C1c1cccc2nonc12 (stereo not drawn) [Example 11] | –
11 | COC(=O)C1=C(C)NC(C)=C(C(=O)OCSC)C1c1ccccc1[N+](=O)[O-] (stereo not drawn) [Example 12] | –
142 | COC(=O)C1=C(C)NC(C)=C(C(=O)OCSc2ccccc2)C1c1cccc([N+](=O)[O-])c1 (stereo not drawn) [Example 13, 2,6-dimethyl-4-(3-nitrophenyl)-1,4-dihydropyridine-3,5-dicarboxylic acid 3-phenylthiomethyl, 5-methylester] | –
35 | COC(=O)C1=C(C)NC(C)=C(C(=O)OCCN(C)Cc2ccccc2)C1c1cccc([N+](=O)[O-])c1 (stereo not drawn) [control, Nicardipine, reference compound] | –

Further lines, the compound ahead of its results:

Compound | IC50 [nM] | activity ranking in words (the smaller the concentration, the more active) (ranking by IC50 in Table 1)
COC(=O)C1=C(C)NC(C)=C(C(=O)OCSC)C1c1cccc([N+](=O)[O-])c1 (stereo not drawn) [Example 1, 2,6-dimethyl-4-(3'-nitrophenyl)-1,4-dihydropyridine-3,5-dicarboxylic acid 3-methylthiomethyl ester 5-methyl ester] | 4 | most active compound
CCOC(=O)C1=C(C)NC(C)=C(C(=O)OCSC)C1c1cccc([N+](=O)[O-])c1 (stereo not drawn) [Example 2] | 20 | –
CSCOC(=O)C1=C(C)NC(C)=C(C(=O)OC(C)C)C1c1cccc([N+](=O)[O-])c1 (stereo not drawn) [Example 3] | 56 | –
CCSCOC(=O)C1=C(C)NC(C)=C(C(=O)OC)C1c1cccc([N+](=O)[O-])c1 (stereo not drawn) [Example 4] | 17 | –
COC(=O)C1=C(C)NC(C)=C(C(=O)OCSC)C1c1cccc(Cl)c1Cl (stereo not drawn) [Example 5] | 29 | –
COC(=O)C1=C(C)NC(C)=C(C(=O)OCSC)C1c1ccccc1C(F)(F)F (stereo not drawn) [Example 6] | 19 | –
COCOC(=O)C1=C(C)NC(C)=C(C(=O)OC)C1c1cccc([N+](=O)[O-])c1 (stereo not drawn) [Example 7] | 42 | –
COCOC(=O)C1=C(C)NC(C)=C(C(=O)OC(C)C)C1c1cccc([N+](=O)[O-])c1 (stereo not drawn) [Example 8] | 26 | –
CCOCOC(=O)C1=C(C)NC(C)=C(C(=O)OC)C1c1cccc([N+](=O)[O-])c1 (stereo not drawn) [Example 9] | 29 | –
